Test results reported in patent publication US10603319B2, “Pyrimidine derivatives and their use in treating or preventing a respiratory syncytial virus infection” (REVIRAL LIMITED, priority 2016, dated 2020).

Assay: Liver microsomal stability, human
Assay type: in vitro ADME
Conditions: both sexes, pooled liver microsomes, pH 7.4, 0.5 mg/mL protein, read-out: Liver Microsomal Stability (T1/2/mins) human
Description: Microsomal Incubation: Experimental Procedure
Pooled human liver microsomes (pooled male and female), pooled rat liver microsomes (male Sprague Dawley rats) and pooled dog liver microsomes (male Beagle dog) are purchased from a reputable commercial supplier and stored at −80° C. prior to use.
Microsomes (final protein concentration 0.5 mg/mL), 0.1 M phosphate buffer pH 7.4 and test compound (final substrate concentration 3 μM; final DMSO concentration 0.25%) are pre-incubated at 37° C. prior to the addition of NADPH (final concentration 1 mM) to initiate the reaction. The final incubation volume is 50 μL. A control incubation is included for each compound tested where 0.1 M phosphate buffer pH 7.4 is added instead of NADPH (minus NADPH). Two control compounds are included with each species. All incubations are performed singularly for each test compound.
Compounds are incubated for 0, 5, 15, 30 and 45 min. The control (minus NADPH) is incubated for 45 min only. […] Following protein precipitation, the sample supernatants are combined in cassettes of up to 4 compounds, internal standard is added and samples analysed by LC-MS/MS. From a plot of ln peak area ratio (compound peak area/internal standard peak area) against time, the gradient of the line is determined. Subsequently, half-life and intrinsic clearance are calculated

For `NC1CCN(c2ncc(CN3C(=O)C4(CC4)c4ccc(F)cc43)c(N[C@H]3CC[C@H](O)CC3)n2)C1` (stereo partly shown) [Compound 2, 1′-((2-(3-Aminopyrrolidin-1-yl)-4-(((1r,4r)-4-hydroxycyclohexyl)amino)pyrimidin-5-yl)methyl)-6′-fluorospiro[cyclopropane-1,3′-indolin]-2′-one], the half-life at 3 μM was 2.82 h.
